Patent US10888520B2, “Coated particle and method for producing coated particle” (KOBE GAKUIN EDUCATIONAL FOUNDATION, priority 2010, dated 2021)

Assay: Elution test, JP XV paddle method
Assay type: physicochemical
Details: paddle 100 rpm, 900 ml pure water, 37° C.
Description: The coating particles obtained in Examples 1 to 3 and the acetaminophen bulk powder were subjected to an elution test.
The elution test was carried out under the conditions of the number of revolutions of paddle: 100 rpm, 900 ml pure water and 37° C., in accordance with JP XV paddle method. Elution concentration of acetaminophen was obtained from an absorbance (285 nm).

CC(=O)Nc1ccc(O)cc1 [acetaminophen bulk powder, acetaminophen]
elution concentration of acetaminophen (after 0.5 minute): 90% | elution concentration of acetaminophen (after (about) 1 minute): 100%
